Here are results for 58 compounds from the METLIN SMRT retention time set (Domingo-Almenara et al. 2019).

The series can be described thus: gradient 5% acetonitrile 3 min, to 50% in 2 min, to 85% in 15 min, held 3 min, 100 µL/min. As to conditions: column: Zorbax Extend-C18 2.1 x 50 mm; eluents: water / acetonitrile, 0.1% formic acid. An outline of the steps: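 Over 3 months, pure standards in mixtures of ~100 molecules were run by HPLC coupled to a quadrupole time-of-flight mass spectrometer in positive and negative ionization mode. The column was a Zorbax Extend-C18 (2.1 × 50 mm, 1.8 μm) at 100 μL/min, eluted with water and acetonitrile each holding 0.1% formic acid, with 40 μL dead and 900 μL dwell volumes. Retention time was determined from adduct peaks chosen by software and checked manually.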
Turning to `O=C(Cc1cccc(F)c1)Nc1nnc(C2CC(=O)N(c3ccc(Cl)cc3)C2)o1` (stereo not drawn), the RP-LC retention time is 800 s.

In turn, `O=C(CSc1n[nH]c(-c2ccccc2)n1)NC1CCCCC1` yielded an RP-LC retention time of 784 s.

`CCOC(=O)c1c(C)[nH]c(C(=O)N2CCC(CC(=O)NC3CCCC3)CC2)c1C`: the RP-LC retention time came out at 720 s.

As to `CSc1nnc(-c2nn(C)c3c2CN(C(=O)c2c(F)cccc2Cl)CC3)n1C`, the RP-LC retention time was determined as 728 s.

In turn, `CCNc1cc(N2CCC(CCC(=O)NCc3ccccc3C)CC2)ncn1` yielded an RP-LC retention time of 651 s.

As to `COC(=O)c1ccc(NC(=O)c2csc(-c3cn(C)c4ncccc34)n2)cc1`, the RP-LC retention time was determined as 990 s.

Take `Cc1ccc(C2=NC3(CCN(C(=O)c4n[nH]c5c4CCCC5)CC3)ON2)cc1`: the RP-LC retention time came out at 736 s.

For `CC1CCN(S(=O)(=O)c2ccc(-c3nnc(C(=O)NCCN4CCOCC4)o3)cc2)CC1`, the RP-LC retention time came out at 674 s.

Take `CCCOc1nc2ccccc2nc1N1CCCC(C(=O)Nc2cc(Cl)ccc2OC)C1` (stereo not drawn): the RP-LC retention time came out at 611 s.

Turning to `O=C(C1CCN(c2nc3ccc(-c4cccc(F)c4)nc3s2)CC1)N1CCOCC1`, the RP-LC retention time was found to be 892 s.

Regarding `Cc1cccc(-c2nc(-c3ccc(S(=O)(=O)N4CCOCC4)cc3)no2)c1`, the RP-LC retention time was 1080 s.

For `CCc1cc(=O)n(CC(=O)Nc2cc(F)ccc2F)c(N2CCOCC2)n1`, the RP-LC retention time amounted to 770 s.

`O=C(NC1CCN(c2cc(-c3ccccc3)[nH]n2)C1)c1ccc2c(c1)OCO2` (stereo not drawn) yielded an RP-LC retention time of 648 s.

Compound `CCOc1ccc(CC(=O)N2CCN(c3cc(-c4cccs4)[nH]n3)CC2)cc1` came in with an RP-LC retention time of 809 s.

Turning to `Cc1ccc(-c2csc(NC(=O)COc3ccc(C)cc3Br)n2)cc1`, the RP-LC retention time came to 1290 s.

Consider `COc1ccc(CN2C=C(C(=O)OCc3nc(-c4cccc(OC)c4)no3)C(C)=NS2(=O)=O)cc1`, for which the RP-LC retention time turned out to be 1130 s.

In the case of `COc1ccc(NC(=O)Cn2ncc3c(c2=O)N(C2CC2)C(=O)CS3)cc1OC`, the RP-LC retention time turned out to be 647 s.

`Cc1nn(CC(=O)N2CCC(N3CCCCC3)CC2)c(=O)c2nn(-c3ccccc3)c(C)c12`: the RP-LC retention time stood at 605 s.

`Cc1ccc(-c2cc3n(n2)CCCN(C(=O)c2ccccn2)C3)cc1` had an RP-LC retention time of 766 s.

On to `CC(=O)Nc1ccc(CCc2nc3ccc(C(=O)NCc4ccco4)cc3[nH]2)cc1`, for which the RP-LC retention time came to 606 s.

As for `Cc1nc(N2CCN(Cc3ccc4c(c3)OCO4)CC2)nc2c1C(=O)CC(C)C2` (stereo not drawn), the RP-LC retention time amounted to 684 s.

`O=C(NCc1ccc2c(c1)OCO2)c1ncoc1-c1ccccc1C(=O)N1CCCC1` showed an RP-LC retention time of 757 s.

On to `O=C(CSc1ncccc1C(=O)O)Nc1nc(-c2ccccc2)cs1`, for which the RP-LC retention time turned out to be 822 s.

`Cc1oc(C2CCN(C(=O)c3cc4ccccc4[nH]3)CC2)nc1C(=O)N1CCSCC1`: the RP-LC retention time turned out to be 847 s.

On to `COC(=O)Cn1c(=O)c(=O)n(CC(=O)OC)c2ccccc21`, for which the RP-LC retention time was found to be 640 s.

Regarding `CNC(=O)Nc1ccc(-c2nc(N3CC4CCC(C3)O4)c3cnn(C4CCC5(CC4)OCCO5)c3n2)cc1`, the RP-LC retention time turned out to be 794 s.

The compound `Cc1nc(-c2cccc(-c3noc(CNC(=O)c4ccccc4)n3)c2)cs1` showed an RP-LC retention time of 918 s.

As for `CCc1nc(-c2csc(S(=O)(=O)N3CCCC(C(=O)Nc4ccc(C)c(F)c4)C3)c2)no1` (stereo not drawn), the RP-LC retention time is 1110 s.

With `CCC(=O)N(C1CCOCC1)C1CCN(S(=O)(=O)c2ccc(C(C)C)cc2)CC1`, the RP-LC retention time is 983 s.

`Cc1cc(NC(=O)Cn2cnc(-c3cccs3)cc2=O)no1` had an RP-LC retention time of 669 s.

`O=C(NCc1cnoc1-c1ccc(F)cc1)c1ccccc1` gave an RP-LC retention time of 844 s.

`O=C(NCc1ccccc1F)c1ccc2c(c1)CNCCO2`: the RP-LC retention time was 605 s.

`O=C(Cn1cccc(-c2nc(-c3ccc(F)cc3)no2)c1=O)Nc1ccccc1Br` came in with an RP-LC retention time of 912 s.

In the case of `CN(C)[C@@H]1CN(C(=O)c2n[nH]c3ccccc23)C[C@H]1CO`, the RP-LC retention time came to 552 s.

For `CCN(CCN(C)C)c1ccc(C(=O)O)cc1NS(=O)(=O)c1cc(F)ccc1C`, the RP-LC retention time was determined as 634 s.

For `COc1ccc(C(C)NC(=O)C2CCN(c3cnc4nccnc4c3)CC2)cc1OC` (stereo not drawn), the RP-LC retention time is 664 s.

`CCOC(=O)CNC(=O)N1CCN(c2nc3ccccc3n2CC)CC1` had an RP-LC retention time of 602 s.

Regarding `COCCCNC(=O)c1ccc(N2CCCN(Cc3ccccc3C)C2=O)cc1`, the RP-LC retention time was 769 s.

The compound `CCn1cc(-c2nc(-c3cc(OC)cc(OC)c3)no2)c(=O)c2cc(F)c(N3CCOCC3)cc21` registered an RP-LC retention time of 957 s.

In turn, `COC(=O)c1ccccc1S(=O)(=O)N1CCc2c(c(-c3nnc(-c4ccccc4)o3)nn2C)C1` registered an RP-LC retention time of 907 s.

Regarding `Cc1ccc(S(=O)(=O)N2CCC(n3c(-c4ccoc4)nc4cccnc43)C2)cc1` (stereo not drawn), the RP-LC retention time worked out at 863 s.

`CCCN(CCC)C1CCc2ccc(O)cc2C1` (stereo not drawn) returned an RP-LC retention time of 640 s.

Consider `C=CCc1cc(OC)ccc1OCC(O)CN1CCN(C(=O)OCC)CC1` (stereo not drawn), for which the RP-LC retention time was 592 s.

For `COC(=O)c1ccc(Cl)cc1NC(=O)COc1nc(C)nc2ccccc12`, the RP-LC retention time amounted to 920 s.

Regarding `CCCCCNC(=O)c1sccc1S(=O)(=O)N(C)c1ccc(OCC)cc1`, the RP-LC retention time amounted to 1190 s.

`Cn1nc(-c2nnc(-c3ccccc3F)o2)c2c1CCN(S(=O)(=O)c1cccc(C#N)c1)C2`: the RP-LC retention time was 885 s.

Turning to `COC(=O)c1cc(S(=O)(=O)N2CCCC2C(=O)Nc2cccc(OC)c2)cn1C` (stereo not drawn), the RP-LC retention time came to 826 s.

On to `CCc1nncn1C1CCN(S(=O)(=O)c2ccc(F)c(C)c2)CC1`, for which the RP-LC retention time is 715 s.

The compound `CC(=O)Nc1ccc(NC(=O)c2cccc(N3C(=O)NC4CC3(C)Oc3ccc(Cl)cc34)c2)cc1` (stereo not drawn) registered an RP-LC retention time of 754 s.

For `CC(C)c1ccc(S(=O)(=O)N2CCc3nn(C)c(=O)n3CC2)cc1`, the RP-LC retention time was 785 s.

`COc1ccc(-n2ncc3c(=O)n(Cc4nc(-c5ccc(C(F)(F)F)cc5)no4)cnc32)cc1` had an RP-LC retention time of 1090 s.

As for `CCc1nccn1Cc1noc(-c2ccc(OC)cc2)n1`, the RP-LC retention time is 626 s.

Regarding `Cc1cc(NC(=O)c2cccc(N3C(=O)CCC3=O)c2)on1`, the RP-LC retention time came out at 622 s.

`O=C(NCc1ccccn1)C(=O)Nc1nccs1` registered an RP-LC retention time of 527 s.

`CCOC(=O)c1cc(S(=O)(=O)N2CCCC2C(=O)NC2CCCCC2)cn1C` (stereo not drawn) returned an RP-LC retention time of 875 s.

As to `CCN1C=C(C(=O)OCc2cc(C)ccc2C)C(C)=NS1(=O)=O`, the RP-LC retention time came to 1060 s.

Consider `CCOC(=O)NC(=O)c1ccsc1NC(=O)c1ccc([N+](=O)[O-])s1`, for which the RP-LC retention time is 851 s.

Consider `CC(=O)Nc1ccc(C(=O)NC2CCN(c3cc(-c4ccc(F)cc4)[nH]n3)C2)cc1` (stereo not drawn), for which the RP-LC retention time was 641 s.
